From ChEMBL document CHEMBL4507267 (2021)

Assays:
[1] = target: Serine/threonine-protein kinase 17A (Homo sapiens) (UniProt Q9UEE5); conditions: Compound concentration 1000.0 nM
[2] = target: Alpha-2A adrenergic receptor (Homo sapiens) (UniProt P08913); conditions: Compound concentration 10.0 uM
[3] = target: Phosphatidylinositol 4-phosphate 3-kinase C2 domain-containing subunit beta (Homo sapiens) (UniProt O00750); conditions: Compound concentration 1000.0 nM
[4] = tested on: Mast/stem cell growth factor receptor Kit (Homo sapiens), P10721 [V559D,V654A]; conditions: Compound concentration 1000.0 nM
[5] = target: Phosphatidylinositol 4,5-bisphosphate 3-kinase catalytic subunit delta isoform (Homo sapiens) (UniProt O00329); conditions: Compound concentration 1000.0 nM
[6] = target: Rhodopsin kinase GRK1 (Homo sapiens) (UniProt Q15835); conditions: Compound concentration 1000.0 nM
[7] = target: Rho-associated protein kinase 1 (Homo sapiens) (UniProt Q13464); conditions: Compound concentration 1000.0 nM
[8] = target: Mitogen-activated protein kinase 9 (Homo sapiens) (UniProt P45984); conditions: Compound concentration 1000.0 nM
[9] = target: Calcium/calmodulin-dependent protein kinase type IV (Homo sapiens) (UniProt Q16566); conditions: Compound concentration 1000.0 nM
[10] = target: Proto-oncogene tyrosine-protein kinase Src (Homo sapiens) (UniProt P12931); conditions: Compound concentration 1000.0 nM
[11] = tested on: Phosphatidylinositol 4,5-bisphosphate 3-kinase catalytic subunit alpha isoform (Homo sapiens), P42336 [Q546K]; conditions: Compound concentration 1000.0 nM
[12] = target: Ribosomal protein S6 kinase alpha-5 (Homo sapiens) (UniProt O75582); conditions: Compound concentration 1000.0 nM
[13] = target: Interleukin-1 receptor-associated kinase 3 (Homo sapiens) (UniProt Q9Y616); conditions: Compound concentration 1000.0 nM
[14] = target: Serine/threonine-protein kinase TNNI3K (Homo sapiens) (UniProt Q59H18); conditions: Compound concentration 1000.0 nM
[15] = target: Phosphatidylinositol 4-phosphate 5-kinase type-1 alpha (Homo sapiens) (UniProt Q99755); conditions: Compound concentration 1000.0 nM
[16] = target: Alpha-1B adrenergic receptor (Homo sapiens) (UniProt P35368); conditions: Compound concentration 10.0 uM
[17] = tested on: Mast/stem cell growth factor receptor Kit (Homo sapiens), P10721 [L576P]; conditions: Compound concentration 1000.0 nM
[18] = target: Tyrosine-protein kinase receptor UFO (Homo sapiens) (UniProt P30530); conditions: Compound concentration 1000.0 nM
[19] = tested on: Leucine-rich repeat serine/threonine-protein kinase 2 (Homo sapiens), Q5S007 [G2019S]; conditions: Compound concentration 1000.0 nM
[20] = target: Serine/threonine-protein kinase WNK3 (Homo sapiens) (UniProt Q9BYP7); conditions: Compound concentration 1000.0 nM
[21] = target: Cyclin-dependent kinase 7 (Homo sapiens) (UniProt P50613); conditions: Compound concentration 1000.0 nM
[22] = target: Epithelial discoidin domain-containing receptor 1 (Homo sapiens) (UniProt Q08345); conditions: Compound concentration 1000.0 nM
[23] = target: Ribosomal protein S6 kinase alpha-1 (Homo sapiens) (UniProt Q15418); conditions: Compound concentration 1000.0 nM
[24] = target: Muscarinic acetylcholine receptor M2 (Homo sapiens) (UniProt P08172); conditions: Compound concentration 10.0 uM
[25] = target: Bone morphogenetic protein receptor type-1A (Homo sapiens) (UniProt P36894); conditions: Compound concentration 1000.0 nM
[26] = target: Mu-type opioid receptor (Homo sapiens) (UniProt P35372); conditions: Compound concentration 10.0 uM
[27] = target: Serine/threonine-protein kinase MAK (Homo sapiens) (UniProt P20794); conditions: Compound concentration 1000.0 nM
[28] = target: Calcium/calmodulin-dependent protein kinase kinase 1 (Homo sapiens) (UniProt Q8N5S9); conditions: Compound concentration 1000.0 nM
[29] = target: Serine/threonine-protein kinase LATS2 (Homo sapiens) (UniProt Q9NRM7); conditions: Compound concentration 1000.0 nM
[30] = tested on: Epidermal growth factor receptor (Homo sapiens), P00533 [G719C]; conditions: Compound concentration 1000.0 nM
[31] = target: Serine/threonine-protein kinase PLK2 (Homo sapiens) (UniProt Q9NYY3); conditions: Compound concentration 1000.0 nM
[32] = target: Ephrin type-A receptor 8 (Homo sapiens) (UniProt P29322); conditions: Compound concentration 1000.0 nM
[33] = target: Receptor-interacting serine/threonine-protein kinase 4 (Homo sapiens) (UniProt P57078); conditions: Compound concentration 1000.0 nM
[34] = target: Serine/threonine-protein kinase 26 (Homo sapiens) (UniProt Q9P289); conditions: Compound concentration 1000.0 nM
[35] = target: Mitogen-activated protein kinase kinase kinase 7 (Homo sapiens) (UniProt O43318); conditions: Compound concentration 1000.0 nM
[36] = target: Mitogen-activated protein kinase kinase kinase 5 (Homo sapiens) (UniProt Q99683); conditions: Compound concentration 1000.0 nM
[37] = target: cGMP-dependent protein kinase 1 (Homo sapiens) (UniProt Q13976); conditions: Compound concentration 1000.0 nM
[38] = target: Serine/threonine-protein kinase 32A (Homo sapiens) (UniProt Q8WU08); conditions: Compound concentration 1000.0 nM
[39] = target: Membrane-associated tyrosine- and threonine-specific cdc2-inhibitory kinase (Homo sapiens) (UniProt Q99640); conditions: Compound concentration 1000.0 nM
[40] = target: GABA-A receptor; anion channel (Rattus norvegicus) (UniProt O09028+P15431+P18506+P18508+P19969+P20236+P23574+P23576+P28471+P28473+P30191+P62813+P63079+P63138+Q91ZM7+Q9ES14); conditions: Compound concentration 10.0 uM
[41] = target: 5-hydroxytryptamine receptor 2A (Homo sapiens) (UniProt P28223); conditions: Compound concentration 10.0 uM
[42] = target: Ephrin type-A receptor 3 (Homo sapiens) (UniProt P29320); conditions: Compound concentration 1000.0 nM
[43] = target: Alpha-2C adrenergic receptor (Homo sapiens) (UniProt P18825); conditions: Compound concentration 10.0 uM

Serine/threonine-protein kinase PLK2 (Homo sapiens), sequence (Q9NYY3 whole entry, looked up): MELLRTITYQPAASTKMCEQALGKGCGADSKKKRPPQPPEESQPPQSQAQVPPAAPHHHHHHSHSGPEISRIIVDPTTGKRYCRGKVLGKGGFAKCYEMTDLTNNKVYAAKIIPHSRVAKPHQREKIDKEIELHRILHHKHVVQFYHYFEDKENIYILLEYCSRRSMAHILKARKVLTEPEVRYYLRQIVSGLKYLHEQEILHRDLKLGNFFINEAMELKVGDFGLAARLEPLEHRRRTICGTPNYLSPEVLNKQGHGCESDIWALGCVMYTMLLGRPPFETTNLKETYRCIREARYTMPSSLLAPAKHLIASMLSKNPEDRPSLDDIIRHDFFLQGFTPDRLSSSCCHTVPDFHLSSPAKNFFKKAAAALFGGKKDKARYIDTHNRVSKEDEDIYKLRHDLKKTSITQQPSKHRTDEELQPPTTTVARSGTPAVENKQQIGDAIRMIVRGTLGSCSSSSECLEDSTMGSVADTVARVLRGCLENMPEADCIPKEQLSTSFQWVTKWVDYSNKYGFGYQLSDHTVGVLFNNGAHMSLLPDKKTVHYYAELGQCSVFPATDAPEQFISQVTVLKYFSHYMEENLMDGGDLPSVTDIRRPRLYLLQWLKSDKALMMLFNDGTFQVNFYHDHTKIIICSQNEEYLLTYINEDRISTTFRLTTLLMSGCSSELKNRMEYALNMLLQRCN
Serine/threonine-protein kinase TNNI3K (Homo sapiens), sequence (Q59H18 whole entry): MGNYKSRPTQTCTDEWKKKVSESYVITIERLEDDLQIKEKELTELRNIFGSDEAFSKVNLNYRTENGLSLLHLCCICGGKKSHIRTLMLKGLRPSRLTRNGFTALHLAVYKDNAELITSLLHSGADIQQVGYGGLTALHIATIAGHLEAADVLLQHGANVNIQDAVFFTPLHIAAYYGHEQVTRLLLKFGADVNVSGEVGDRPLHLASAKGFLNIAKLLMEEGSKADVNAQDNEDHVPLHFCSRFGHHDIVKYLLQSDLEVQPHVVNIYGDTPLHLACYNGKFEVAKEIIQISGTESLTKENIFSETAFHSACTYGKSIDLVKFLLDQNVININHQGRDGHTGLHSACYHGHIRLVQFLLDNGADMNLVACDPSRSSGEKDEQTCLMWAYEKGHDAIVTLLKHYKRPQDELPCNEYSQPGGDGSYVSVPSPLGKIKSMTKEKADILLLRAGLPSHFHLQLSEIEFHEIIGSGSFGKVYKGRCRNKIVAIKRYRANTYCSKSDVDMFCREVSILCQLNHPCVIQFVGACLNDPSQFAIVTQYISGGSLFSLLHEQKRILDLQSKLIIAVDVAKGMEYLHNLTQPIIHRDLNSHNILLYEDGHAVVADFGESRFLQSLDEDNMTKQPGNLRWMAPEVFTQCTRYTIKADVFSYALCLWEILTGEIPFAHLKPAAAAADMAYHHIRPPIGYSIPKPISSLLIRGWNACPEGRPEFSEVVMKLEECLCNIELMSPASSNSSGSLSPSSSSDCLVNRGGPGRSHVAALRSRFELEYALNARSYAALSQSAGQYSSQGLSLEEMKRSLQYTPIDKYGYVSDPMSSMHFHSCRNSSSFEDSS
Mitogen-activated protein kinase kinase kinase 7 (Homo sapiens), sequence (O43318 whole entry): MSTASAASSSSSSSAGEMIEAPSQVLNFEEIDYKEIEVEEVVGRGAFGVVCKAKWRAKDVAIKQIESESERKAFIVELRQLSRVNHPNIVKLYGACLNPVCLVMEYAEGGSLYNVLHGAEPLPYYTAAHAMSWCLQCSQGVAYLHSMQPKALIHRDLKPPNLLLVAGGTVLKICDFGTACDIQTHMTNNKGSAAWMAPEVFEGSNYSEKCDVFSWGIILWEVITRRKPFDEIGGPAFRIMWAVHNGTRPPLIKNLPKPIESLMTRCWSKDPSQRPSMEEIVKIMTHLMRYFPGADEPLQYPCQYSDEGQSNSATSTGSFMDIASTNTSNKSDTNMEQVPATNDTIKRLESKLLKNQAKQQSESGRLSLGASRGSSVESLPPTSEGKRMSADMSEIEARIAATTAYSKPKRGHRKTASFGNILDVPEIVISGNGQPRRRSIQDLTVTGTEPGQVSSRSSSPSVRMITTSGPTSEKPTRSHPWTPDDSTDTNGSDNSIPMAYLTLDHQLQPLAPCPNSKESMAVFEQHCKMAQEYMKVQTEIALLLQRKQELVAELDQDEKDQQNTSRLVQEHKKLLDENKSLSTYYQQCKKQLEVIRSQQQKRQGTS
Serine/threonine-protein kinase LATS2 (Homo sapiens), sequence (Q9NRM7 whole entry): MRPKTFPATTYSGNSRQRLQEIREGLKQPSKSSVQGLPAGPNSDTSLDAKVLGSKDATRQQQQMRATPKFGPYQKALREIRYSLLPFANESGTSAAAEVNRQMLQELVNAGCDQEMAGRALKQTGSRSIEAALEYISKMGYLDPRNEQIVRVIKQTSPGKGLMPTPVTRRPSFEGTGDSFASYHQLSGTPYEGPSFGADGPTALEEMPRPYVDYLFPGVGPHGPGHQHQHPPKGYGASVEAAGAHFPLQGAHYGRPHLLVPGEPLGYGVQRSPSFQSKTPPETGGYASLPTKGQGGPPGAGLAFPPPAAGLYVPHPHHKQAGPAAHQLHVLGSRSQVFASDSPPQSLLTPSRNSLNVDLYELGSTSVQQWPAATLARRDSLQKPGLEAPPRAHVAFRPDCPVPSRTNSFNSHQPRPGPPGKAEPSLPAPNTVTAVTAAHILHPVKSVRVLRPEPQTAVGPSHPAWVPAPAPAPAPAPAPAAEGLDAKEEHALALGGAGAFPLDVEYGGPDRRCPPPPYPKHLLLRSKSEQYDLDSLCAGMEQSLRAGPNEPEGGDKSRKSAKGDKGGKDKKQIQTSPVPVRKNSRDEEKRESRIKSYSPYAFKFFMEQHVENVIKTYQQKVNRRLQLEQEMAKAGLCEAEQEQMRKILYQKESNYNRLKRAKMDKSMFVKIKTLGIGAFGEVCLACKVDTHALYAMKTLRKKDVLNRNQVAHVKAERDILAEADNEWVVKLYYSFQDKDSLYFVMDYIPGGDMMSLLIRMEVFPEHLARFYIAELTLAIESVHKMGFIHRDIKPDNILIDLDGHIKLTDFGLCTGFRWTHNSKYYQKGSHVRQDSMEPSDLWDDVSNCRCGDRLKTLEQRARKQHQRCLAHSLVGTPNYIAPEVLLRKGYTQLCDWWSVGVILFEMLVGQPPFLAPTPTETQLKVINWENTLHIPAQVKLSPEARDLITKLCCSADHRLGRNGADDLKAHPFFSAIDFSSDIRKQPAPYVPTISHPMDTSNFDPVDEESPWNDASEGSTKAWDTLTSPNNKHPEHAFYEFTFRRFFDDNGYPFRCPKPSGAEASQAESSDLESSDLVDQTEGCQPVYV
Ephrin type-A receptor 8 (Homo sapiens), sequence (P29322 whole entry): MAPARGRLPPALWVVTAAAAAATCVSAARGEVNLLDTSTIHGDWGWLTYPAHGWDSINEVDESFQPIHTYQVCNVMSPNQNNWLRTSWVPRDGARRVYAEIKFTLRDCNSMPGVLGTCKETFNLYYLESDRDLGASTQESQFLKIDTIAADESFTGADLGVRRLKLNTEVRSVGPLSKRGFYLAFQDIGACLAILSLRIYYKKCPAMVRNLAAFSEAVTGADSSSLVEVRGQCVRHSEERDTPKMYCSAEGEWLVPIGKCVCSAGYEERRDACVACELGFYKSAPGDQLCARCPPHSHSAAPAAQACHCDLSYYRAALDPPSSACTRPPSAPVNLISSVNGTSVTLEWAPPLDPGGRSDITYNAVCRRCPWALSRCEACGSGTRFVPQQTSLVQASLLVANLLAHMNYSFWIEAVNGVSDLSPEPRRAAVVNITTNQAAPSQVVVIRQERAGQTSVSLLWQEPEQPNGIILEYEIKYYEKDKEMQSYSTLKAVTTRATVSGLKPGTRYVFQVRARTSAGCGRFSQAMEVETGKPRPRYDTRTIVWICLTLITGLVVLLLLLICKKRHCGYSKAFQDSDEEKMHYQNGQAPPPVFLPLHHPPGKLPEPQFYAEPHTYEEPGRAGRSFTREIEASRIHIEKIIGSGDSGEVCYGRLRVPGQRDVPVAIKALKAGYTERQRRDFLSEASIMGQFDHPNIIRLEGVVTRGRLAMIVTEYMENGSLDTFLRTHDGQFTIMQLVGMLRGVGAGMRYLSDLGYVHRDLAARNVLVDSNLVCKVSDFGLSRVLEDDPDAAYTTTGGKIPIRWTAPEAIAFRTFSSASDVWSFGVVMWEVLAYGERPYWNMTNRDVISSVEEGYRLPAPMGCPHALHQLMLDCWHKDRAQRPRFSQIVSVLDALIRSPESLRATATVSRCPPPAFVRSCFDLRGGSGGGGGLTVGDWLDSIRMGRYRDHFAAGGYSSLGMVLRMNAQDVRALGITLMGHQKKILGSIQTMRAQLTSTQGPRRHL
Bone morphogenetic protein receptor type-1A (Homo sapiens), sequence (P36894 whole entry): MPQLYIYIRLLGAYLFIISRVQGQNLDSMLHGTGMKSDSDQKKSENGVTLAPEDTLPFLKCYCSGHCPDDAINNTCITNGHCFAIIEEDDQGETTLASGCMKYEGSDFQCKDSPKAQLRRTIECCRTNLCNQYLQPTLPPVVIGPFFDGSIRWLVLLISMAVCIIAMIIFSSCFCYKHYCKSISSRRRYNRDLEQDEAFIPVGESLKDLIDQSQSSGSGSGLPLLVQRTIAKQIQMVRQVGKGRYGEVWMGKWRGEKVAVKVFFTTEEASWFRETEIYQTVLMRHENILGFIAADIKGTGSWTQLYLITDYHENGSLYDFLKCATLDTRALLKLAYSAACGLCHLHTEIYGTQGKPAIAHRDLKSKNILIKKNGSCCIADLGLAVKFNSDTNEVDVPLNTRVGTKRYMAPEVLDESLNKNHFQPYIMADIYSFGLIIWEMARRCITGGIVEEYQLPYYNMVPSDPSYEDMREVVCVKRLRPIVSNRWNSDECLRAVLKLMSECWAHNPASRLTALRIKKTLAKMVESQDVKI

Cc1c(NC(=O)c2cc(C(N)=O)nc3cc(F)ccc23)c(C(F)(F)F)nn1Cc1ccc(C(C)(C)C)cc1 [BAY-588]
residual activity [1]: 79% | inhibition [2]: 23.1% | residual activity [3]: 86% | residual activity [4]: 98% | residual activity [5]: 100% | residual activity [6]: 83% | residual activity [7]: 100% | residual activity [8]: 100% | residual activity [9]: 90% | residual activity [10]: 100% | residual activity [11]: 32% | residual activity [12]: 100% | residual activity [13]: 100% | residual activity [14]: 81% | residual activity [15]: 100% | inhibition [16]: -5.98% | residual activity [17]: 95% | residual activity [18]: 100% | residual activity [19]: 100% | residual activity [20]: 97% | residual activity [21]: 100% | residual activity [22]: 95% | residual activity [23]: 100% | inhibition [24]: 15.3% | residual activity [25]: 100% | inhibition [26]: 4.84% | residual activity [27]: 85% | residual activity [28]: 98% | residual activity [29]: 84% | residual activity [30]: 71% | residual activity [31]: 100% | residual activity [32]: 100% | residual activity [33]: 100% | residual activity [34]: 100% | residual activity [35]: 100% | residual activity [36]: 100% | residual activity [37]: 99% | residual activity [38]: 100% | residual activity [39]: 100% | inhibition [40]: 9.54% | inhibition [41]: -0.878% | residual activity [42]: 98% | inhibition [43]: 2.11%

Cc1c(NC(=O)c2cc(C(N)=O)nc3cc(F)ccc23)c(C(F)(F)F)nn1Cc1ccc(C#N)cc1 [BAY-876]
residual activity [1]: 90% | inhibition [2]: 0.0425% | residual activity [3]: 81% | residual activity [4]: 58% | residual activity [5]: 66% | residual activity [6]: 87% | residual activity [7]: 97% | residual activity [8]: 77% | residual activity [9]: 76% | residual activity [10]: 81% | residual activity [11]: 85% | residual activity [12]: 97% | residual activity [13]: 94% | residual activity [14]: 100% | residual activity [15]: 100% | inhibition [16]: -8.82% | residual activity [17]: 92% | residual activity [18]: 100% | residual activity [19]: 100% | residual activity [20]: 77% | residual activity [21]: 52% | residual activity [22]: 1.5% | residual activity [23]: 78% | inhibition [24]: 25.8% | residual activity [25]: 84% | inhibition [26]: 6.68% | residual activity [27]: 79% | residual activity [28]: 97% | residual activity [29]: 72% | residual activity [30]: 83% | residual activity [31]: 78% | residual activity [32]: 91% | residual activity [33]: 92% | residual activity [34]: 95% | residual activity [35]: 68% | residual activity [36]: 91% | residual activity [37]: 100% | residual activity [38]: 89% | residual activity [39]: 99% | inhibition [40]: 2.64% | inhibition [41]: 14.3% | residual activity [42]: 90% | inhibition [43]: -0.745%
